Source: patent US10723699B2 (Hyundai Pharm Co., Ltd., priority 2015, dated 2020)
pEC50: −log10 of the molar value. Where two headings read alike, the source gives them in different places.

Target: T1, G protein-coupled receptor 119 (GPR-119) (Mesocricetus auratus, UniProt A0A1U8CD06)
T1 construct: hamster-derived β-cells containing G protein-coupled receptor 119 (GPR-119), HIT-T15 cells; host or cells: HIT-T15 (hamster pancreatic β-cells)
T1 sequence (A0A1U8CD06 1-334): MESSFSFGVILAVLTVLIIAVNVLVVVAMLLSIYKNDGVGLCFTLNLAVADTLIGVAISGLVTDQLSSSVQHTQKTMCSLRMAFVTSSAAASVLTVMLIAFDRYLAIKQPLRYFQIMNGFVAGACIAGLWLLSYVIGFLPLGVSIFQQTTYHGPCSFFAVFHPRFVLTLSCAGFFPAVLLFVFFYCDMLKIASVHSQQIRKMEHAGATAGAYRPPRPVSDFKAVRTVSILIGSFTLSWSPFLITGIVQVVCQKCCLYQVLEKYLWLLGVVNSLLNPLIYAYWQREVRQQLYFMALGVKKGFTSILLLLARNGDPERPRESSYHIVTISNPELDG
Assay: cAMP activity in HIT-T15 cells (cAMP dynamic kit, FRET)
Assay type: cell-based, hamster
Method: To check whether the cyclohexene derivatives according to the present invention activate cyclic adenosine monophosphate (cAMP), experiments were carried out, as follows.
The HIT-T15 cells were plated on a 96-well plate at 60,000 cells per well. On the next day of plating, the cells were treated with a varying concentration of each of the example compounds according to the present invention, and incubated at 37° C. for an hour. In this case, each of the treated compounds was used at six concentrations, ranging from 0.0032 to 10 μM, to treat the cells.
The cyclic adenosine monophosphate (cAMP) activity was measured according to the manufacturer's instruction using a cAMP dynamic kit commercially available from Cis Bio Inc. (Bedford, Mass.). The cells were lysed, and a level of cAMP was determined by a competitive immunoassay using D2-labeled cAMP and a cryptate-labeled anti-cAMP antibody. Fluorescence was read in Flex Station (Molecular Devices). […] Unlabeled cAMP in the cell lysate competed with the D2-labeled cAMP against the cryptate-labeled antibody. Since a decrease in the measured intensity of the FRET signals represents a level of cAMP in the cells, the cAMP activities of the compounds are calculated as a change in FRET signals by adjusting an amount of dimethyl sulfoxide (DMSO).

[1] = 1 hour at 37° C., six concentrations 0.0032 to 10 μM, read-out: EC50

pEC50 [1] | pEC50 (Table 2, read-out: EC50 value) | Structure (SMILES)
8.10 | ≥ 7.30 | CC(C)(C)OC(=O)N1CCC(COc2ccc(C3=CCC(C(=O)N4CCOCC4)CC3)cc2F)CC1 (single isomer, unassigned; (+)) [Example 442, (+)-tert-butyl 4-((2-fluoro-4-(4-(morpholine-4-carbonyl)cyclohex-1-enyl)phenoxy)methyl)piperidine-1-carboxylate]
7.85 | ≥ 7.30 | CCc1cnc(N2CCC(COc3ccc(C4=CCC(C(=O)N5CCC(F)(F)C5)CC4)c(F)c3)CC2)nc1 (single isomer, unassigned; (+)) [Example 462, (+)-(3,3-difluoropyrrolidin-1-yl)(4-(4-((1-(5-ethylpyrimidin-2-yl)piperidin-4-yl)methoxy)-2-fluorophenyl)cyclohex-3-enyl)methanone]
7.89 | ≥ 7.30 | CCc1cnc(N2CCC(COc3ccc(C4=CCC(C(=O)N5CC(F)(F)C(F)(F)C5)CC4)c(F)c3)CC2)nc1 (single isomer, unassigned; (+)) [Example 464, (+)-(4-(4-((1-(5-ethylpyrimidin-2-yl)piperidin-4-yl)methoxy)-2-fluorophenyl)cyclohex-3-enyl)(3,3,4,4-tetrafluoropyrrolidin-1-yl)methanone]
7.92 | ≥ 7.30 | CCc1cnc(N2CCC(COc3ccc(C4=CCC(C(=O)N5CCC[C@H]5CO)CC4)cc3)CC2)nc1 (single isomer, unassigned; (+)) [Example 466]
7.68 | ≥ 7.30 | CCc1cnc(N2CCC(COc3ccc(C4=CCC(C(=O)N5CCCC5)CC4)cc3F)CC2)nc1 (single isomer, unassigned; (-)) [Example 429, (−)-(4-(4-((1-(5-ethylpyrimidin-2-yl)piperidin-4-yl)methoxy)-3-fluorophenyl)cyclohex-3-enyl)(pyrrolidin-1-yl)methanone]
8.05 | ≥ 7.30 | CCc1cnc(N2CCC(COc3ccc(C4=CCC(C(=O)N5CCC(CCO)CC5)CC4)cc3F)CC2)nc1 (single isomer, unassigned; (-)) [Example 430, (−)-(4-(4-((1-(5-ethylpyrimidin-2-yl)piperidin-4-yl)methoxy)-3-fluorophenyl)cyclohex-3-enyl)(4-(2-hydroxyethyl)piperidin-1-yl)methanone]
7.48 | ≥ 7.30 | CCc1cnc(N2CCC(COc3ccc(C4=CCC(C(=O)NCCO)CC4)cc3F)CC2)nc1 (single isomer, unassigned; (-)) [Example 441, (−)-4-(4-((1-(5-ethylpyrimidin-2-yl)piperidin-4-yl)methoxy)-3-fluorophenyl)-N-(2-hydroxyethyl)cyclohex-3-enecarboxamide]
7.42 | – | CC(C)(C)OC(=O)N1CCC(COc2ccc(C3=CCC(C(=O)N4CCOCC4)CC3)cc2F)CC1 (single isomer, unassigned; (-)) [Example 443, (−)-tert-butyl 4-((2-fluoro-4-(4-(morpholine-4-carbonyl)cyclohex-1-enyl)phenoxy)methyl)piperidine-1-carboxylate]
7.92 | – | CCc1cnc(N2CCC(COc3ccc(C4=CCC(C(=O)N5CC[C@H](F)C5)CC4)cc3)CC2)nc1 (single isomer, unassigned; (-)) [Example 458]
7.04 | – | CCc1cnc(N2CCC(COc3ccc(C4=CCC(C(=O)N5CCC(F)(F)C5)CC4)c(F)c3)CC2)nc1 (single isomer, unassigned; (-)) [Example 461, (−)-(3,3-difluoropyrrolidin-1-yl)(4-(4-((1-(5-ethylpyrimidin-2-yl)piperidin-4-yl)methoxy)-2-fluorophenyl)cyclohex-3-enyl)methanone]
7.06 | – | CCc1cnc(N2CCC(COc3ccc(C4=CCC(C(=O)N5CC(F)(F)C(F)(F)C5)CC4)c(F)c3)CC2)nc1 (single isomer, unassigned; (-)) [Example 463, (−)-(4-(4-((1-(5-ethylpyrimidin-2-yl)piperidin-4-yl)methoxy)-2-fluorophenyl)cyclohex-3-enyl)(3,3,4,4-tetrafluoropyrrolidin-1-yl)methanone]
6.96 | – | CCc1cnc(N2CCC(COc3ccc(C4=CCC(C(=O)N5CCC[C@H]5CO)CC4)cc3)CC2)nc1 (single isomer, unassigned; (-)) [Example 465]
– | ≥ 7.30 | CC(C)c1noc(N2CCC(COc3ccc(C4=CCC(C(=O)N5CC[C@H](F)C5)CC4)cc3F)CC2)n1 (stereo partly drawn) [Example 95, (4-(3-fluoro-4-((1-(3-isopropyl-1,2,4-oxadiazol-5-yl)piperidin-4-yl)methoxy)phenyl)cyclohex-3-enyl)((S)-3-fluoropyrrolidin-1-yl)methanone]
– | ≥ 7.30 | CCc1cnc(N2CCC(COc3ccc(C4=CCC(C(=O)N5CCN(CCO)CC5)CC4)cc3)CC2)nc1 (centres unmarked) [Example 172, (4-(4-((1-(5-ethylpyrimidin-2-yl)piperidin-4-yl)methoxy)phenyl)cyclohex-3-enyl)(4-(2-hydroxyethyl)piperazin-1-yl)methanone]
– | ≥ 7.30 | CCc1cnc(N2CCC(COc3ccc(C4=CCC(C(=O)N5CCC(CCO)CC5)CC4)cc3)CC2)nc1 (centres unmarked) [Example 173, (4-(4-((1-(5-ethylpyrimidin-2-yl)piperidin-4-yl)methoxy)phenyl)cyclohex-3-enyl)(4-(2-hydroxyethyl)piperidin-1-yl)methanone]
– | ≥ 7.30 | CCc1cnc(N2CCC(COc3ccc(C4=CCC(C(=O)NCC(C)(C)CO)CC4)cc3)CC2)nc1 (centres unmarked) [Example 177, 4-(4-((1-(5-ethylpyrimidin-2-yl)piperidin-4-yl)methoxy)phenyl)-N-(3-hydroxy-2,2-dimethylpropyl)cyclohex-3-enecarboxamide]
– | ≥ 7.30 | CCN1CCN(C(=O)C2CC=C(c3ccc(OCC4CCN(C(=O)OC(C)(C)C)CC4)cc3)CC2)CC1 (centres unmarked) [Example 203, tert-butyl 4-((4-(4-(4-ethylpiperazine-1-carbonyl)cyclohex-1-enyl)phenoxy)methyl)piperidine-1-carboxylate]
– | ≥ 7.30 | CCc1cnc(N2CCC(COc3ccc(C4=CCC(C(=O)N5CC=CC5)CC4)cc3)CC2)nc1 (centres unmarked) [Example 235, (2,5-dihydro-1H-pyrrol-1-yl)(4-(4-((1-(5-ethylpyrimidin-2-yl)piperidin-4-yl)methoxy)phenyl)cyclohex-3-enyl)methanone]
– | ≥ 7.30 | CC(C)(C)OC(=O)N1CCC(COc2ccc(C3=CCC(C(=O)N4CCc5ccccc5C4)CC3)cc2)CC1 (centres unmarked) [Example 239, tert-butyl 4-((4-(4-(1,2,3,4-tetrahydroisoquinoline-2-carbonyl)cyclohex-1-enyl)phenoxy)methyl)piperidine-1-carboxylate]
7.66 | ≥ 7.30 | CC(C)c1noc(N2CCC(COc3ccc(C4=CCC(C(=O)N5CCC(=O)C5)CC4)cc3)CC2)n1 (centres unmarked) [Example 251]
– | ≥ 7.30 | CCc1cnc(N2CCC(COc3ccc(C4=CCC(C(=O)N5C/C(=N\OC)C(CO)(CO)C5)CC4)cc3)CC2)nc1 (centres unmarked) [Example 253, (Z)-(3,3-bis(hydroxymethyl)-4-(methoxyimino)pyrrolidin-1-yl)(4-(4-((1-(5-ethylpyrimidin-2-yl)piperidin-4-yl)methoxy)phenyl)cyclohex-3-enyl)methanone]
– | ≥ 7.30 | CC(C)(C)OC(=O)N1CCC(COc2ccc(C3=CCC(C(=O)N4CCN(CC5CC5)CC4)CC3)cc2)CC1 (centres unmarked) [Example 256, tert-butyl 4-((4-(4-(4-(cyclopropylmethyl)piperazine-1-carbonyl)cyclohex-1-enyl)phenoxy)methyl)piperidine-1-carboxylate]
8.15 | ≥ 7.30 | CC(C)(C)OC(=O)N1CCC(COc2ccc(C3=CCC(C(=O)N4CCC(C#N)CC4)CC3)cc2)CC1 (centres unmarked) [Example 262]
– | ≥ 7.30 | CC(C)(C)OC(=O)N1CCC(COc2ccc(C3=CCC(C(=O)N4CCC5(C=Cc6ccccc65)CC4)CC3)cc2)CC1 (centres unmarked) [Example 264, tert-butyl 4-((4-(4-(spiro[indene-1,4′-piperidin]-1′-ylcarbonyl)cyclohex-1-enyl)phenoxy)methyl)piperidine-1-carboxylate]
– | ≥ 7.30 | CON=C1CCN(C(=O)C2CC=C(c3ccc(OCC4CCN(C(=O)OC(C)(C)C)CC4)cc3)CC2)CC1 (centres unmarked) [Example 270, tert-butyl 4-((4-(4-(4-(methoxyimino)piperidine-1-carbonyl)cyclohex-1-enyl)phenoxy)methyl)piperidine-1-carboxylate]
– | ≥ 7.30 | CC(C)c1noc(N2CCC(COc3ccc(C4=CCC(C(=O)N5CCC(=NO)CC5)CC4)cc3)CC2)n1 (centres unmarked) [Example 276, (4-(hydroxyimino)piperidin-1-yl)(4-(4-((1-(3-isopropyl-1,2,4-oxadiazol-5-yl)piperidin-4-yl)methoxy)phenyl)cyclohex-3-enyl)methanone]
